These results are taken from patent publication US8691222B2, “NLRR-1 antagonists and uses thereof” (Genentech, Inc., priority 2007, dated 2014).

Series [1] relates to SK-MES cells (NLRR-1-negative). As to the kind of experiment: Apoptosis and erlotinib synergy assay, SK-MES. The format is cell-based, human. To be noted: NLRR-1 siRNA knockdown plus increasing concentrations of erlotinib, erlotinib-sensitive, FIG. 8F. As for the experimental part: (§1) The NLRR-1 siRNA duplex was designed and synthesized by Dharmacon (Lafayette, Colo.). The sense sequence is […] (SEQ ID NO: 11) and the antisense sequence is 5′-[…] (SEQ ID NO: 12). NCI-H2009, NCI-H647, NCI-H226, and SK-MES-1 cells were seeded at 2830/cm^2 and NCI-H520 and NCI-H1781 cells were seeded at 5660/cm^2. 100 nM of siRNA was transfected with DharmaFECT 4 for 6 to 8 hours before the transfectant was replaced with fresh media. A non-targeting siRNA sequence (Dharmacon) was used as a negative control. RT-PCR was performed on RNA extracted from 60 mm plates using RNeasy (Qiagen, Valencia, Calif.) per manufacturer's instructions. EGFR flow cytometry and immunoblot: After siRNA transfection for 24 hours, cells were harvested and stained with α-EGFR antibody conjugated to PE (BD Pharmingen) and propidium iodide for flow cytometry analysis. 10,000 events were collected and cells were gated on FSC, SSC, and PI. For immunoblot analysis, lysates were immunoblotted with α-EGFR (MBL) or α-βtubulin (Santa Cruz Biotechnology). […] Cell growth was assessed after 4 days by Cell Titer Glo (Promega, Madison, Wis.) per manufacturer's instructions. […] For apoptosis assay with starvation, cells were starved in Optimem I. For both assays, cell viability was measured with Cell Titer Glo (Promega, Madison, Wis.) and apoptosis was measured with Caspase-Glo 3/7 (Promega) after 2 days. […]

The next series concerns NCI-H647 cells. Put plainly: Apoptosis and erlotinib synergy assay, NCI-H647. The format is cell-based, human. To be noted: NLRR-1 siRNA knockdown plus increasing concentrations of erlotinib; NCI-H647, erlotinib-resistant; FIG. 8A. The protocol:
as §1

For series [2], the system named is NCI-H2009 cells. Put plainly: Apoptosis and erlotinib synergy assay, NCI-H2009. In kind it is cell-based, human. To be noted: NLRR-1 siRNA knockdown plus increasing concentrations of erlotinib; NCI-H2009, erlotinib-sensitive; FIG. 8E. The protocol:
as §1

The subject of series [3] is EGFR in NCI-H2009, NCI-H226, NCI-H647 cells. As to the kind of experiment: EGFR flow cytometry and immunoblot after NLRR-1 siRNA knockdown. The format is cell-based, human. As for the experimental part: as §1
Series [4] relates to SK-MES1 lung carcinoma cell line. Put plainly: Proliferation assay (Cell Titer Glo) after siRNA knockdown, SK-MES1. To be noted: 100 nM siRNA; 4 days; SK-MES1, does not express NLRR-1. The format is cell-based, human. The protocol: as §1
For orientation: In ATP-based viability assays light output follows the ATP content of the culture.

In series [5] the test system is cell lines that endogenously expressed NLRR-1. Put plainly: Apoptosis assay with starvation (caspase 3/7) after siRNA knockdown. The format is cell-based, human. To be noted: vs non-targeting control RNA. As for the experimental part:
as §1, with “instructions.” for “instructions. EGFR flow cytometry and immunoblot: After siRNA transfection for 24 hours, cells were harvested and stained with α-EGFR antibody conjugated to PE (BD Pharmingen) and propidium iodide for flow cytometry analysis. 10,000 events were collected and cells were gated on FSC, SSC, and PI. For immunoblot analysis, lysates were immunoblotted with α-EGFR (MBL) or α-βtubulin (Santa Cruz Biotechnology).”
EGFR pathway activation in tumor cells has consequences for many important cellular processes, including cell survival. […] NLRR-1 was knocked down using siRNA, cells were subjected to starvation to promote apoptosis, and apoptosis was measured by caspase 3/7 activity and normalized for viable cells (FIG. 6C).

Another series has as its system NCI-H520 cells. Put plainly: Apoptosis and erlotinib synergy assay, NCI-H520. In kind it is cell-based, human. To be noted: NLRR-1 siRNA knockdown plus increasing concentrations of erlotinib; NCI-H520, resistant; FIG. 8D. The protocol: as §1
The subject of a further series is NCI-H226 cells. Put plainly: Apoptosis and erlotinib synergy assay, NCI-H226. The format is cell-based, human. To be noted: NLRR-1 siRNA knockdown plus increasing concentrations of erlotinib; NCI-H226, resistant; FIG. 8C. As for the experimental part:
as §1

The subject of a further series is NCI-H1781 cells. Put plainly: Apoptosis and erlotinib synergy assay, NCI-H1781. To be noted: NLRR-1 siRNA knockdown plus increasing concentrations of erlotinib; NCI-H1781, resistant; FIG. 8B. The format is cell-based, human. As for the experimental part:
as §1

For series [6], the system named is NCI-H2009 cells. To be noted: NCI-H2009, characterized as sensitive to erlotinib; cited from earlier work.
Series [7] deals with lung tumor cell lines which endogenously express NLRR-1. To be noted: several lung tumor cell lines classified as resistant to erlotinib; cited from earlier work.

In the case of “NLRR-1 siRNA: siRNA duplex by Dharmacon; sense GCCAGAACCUGAAAUUUACUU (SEQ ID NO: 11), antisense 5′-PGUAAAUUUCAGGUUCUGGCUU (SEQ ID NO: 12) (5' phosphate on antisense, further chemistry not given here)”, the “apoptosis (caspase 3/7 activity) in presence of erlotinib” value in series [1] is reported as “did not show any increase in apoptosis”; in the series with NCI-H647 cells it was “significant increase in sensitivity”; in the series on NCI-H2009 cells [2], “did not show any increased apoptosis”; with NCI-H520 cells, “possibly also, to a lesser degree”; with NCI-H226 cells, “synergy”; with NCI-H1781 cells it was “synergy”. Moreover, the “total EGFR protein level” value in series [3] (NLRR-1 depleted vs control-depleted cells, immunoblot) was “unchanged”. In series [3] (siRNA knockdown 24 hours, NCI-H2009, NCI-H226, NCI-H647, vs non-targeting siRNA, flow cytometry), the “surface EGFR protein level” value was “increase in surface EGFR”. Further, the “proliferation (ATP-based cell viability)” value in [4] is “no significant defect in proliferation”. In addition, in [5], the “apoptosis (caspase 3/7 activity normalized for viable cells)” value is listed as “increase in apoptosis”.
What is called IC50 is the point on the concentration scale where inhibition reaches its midpoint. With `C#Cc1cccc(Nc2ncnc3cc(OCCOC)c(OCCOC)cc23)c1` [erlotinib], the IC50 in the series with NCI-H2009 cells [6] is no more than 2000 nM; in series [7], no less than 8 µM.
